# Entries after “also recorded” stand apart in the source; their conditions may differ.
# Experiments:
# GSK-3 [1] = assay: Cytoplasmic β-catenin stabilization in HEK293T cells (Western blot); assay type: cell-based, human; conditions: 10 μM, vs DMSO-treated cells
# Experimental: Human embryonic kidney 293T (HEK293T) cells, U87MG astrocytoma and the human oligodendrocyte cell line MO3-13 were grown in Dubelco Minimal Eagle Media (DMEM) (Invitrogen, Carlsbad, Calif., USA) supplemented with 5% heat inactivated fetal bovine serum. Cells were grown to 70% confluence prior to treatment. […] Cells were exposed to drug for 3 hours at 37° C. in a 5% CO2 incubator. U87MG cells were grown to 70% confluence prior to treatment. Cells were treated with either DMSO vehicle (NT) or individually with 1, 5 and 10 μM latanoprost in DMEM lacking fetal bovine serum. Cells were exposed to treatments for 6 hours at 37° C. in a 5% CO2 incubator. The human oligodendrocyte cell line MO3-13 was grown and differentiated according to the methods described in McLaurin et al. (McLaurin, J., Trudel, G. C., Shaw, I. T., Antel, J. P., and Cashman, N. R., J. Neurobiol., 26: 283-293, 1995). On the third day of serum starvation, cells were treated with either DMSO vehicle (NT) or individually with 1, 5 and 10 μM latanoprost. Cells were exposed to treatments for 6 hours at 37° C. in a 5% CO2 incubator.
# (§1) For detection of CREB and Serine-133 (S133)-phosphorylated CREB, serotonin receptor 5HT2A, TCF/LEF1, BDNF and TNF-total protein extracts were prepared from cell cultures using a sintered glass tissue homogenizer (Wheaton, Millville, N.J., USA) in phosphate-buffered saline (PBS), pH 7.5, 3M urea. For detection of β-catenin, cell cultures were washed with PBS, trypsinized, and pelleted at 1,000 rpm for 4 minutes. The cell pellets were washed and resuspended in cold hypotonic buffer consisting of 10 mM HEPES (pH 7.5), 1.5 mM MgCl2, 10 mM KCl, 0.5 mM DTT, and EDTA-free protease inhibitor (Roche, Laval, QC, Canada) in an ice bath for 5 minutes. The mixture was then homogenized using a dounce homogenizer and the cellular debris was pelleted by centrifugation at 4° C. Cytoplasmic fractions were recovered and used for assaying β-catenin.
# (§2) Protein concentrations were determined by the Peterson method (Peterson, Analyt. Biochem., 83: 346-356, 1977). […]
# GSK-3 [2] = assay: Distalless (Dll) expression in Drosophila wing imaginal discs as assay of GSK-3 function; assay type: cell-based; conditions: for Dll expression in wing imaginal discs: Dll lacZ, vs DMSO
# DBA/2J mice = assay: Open field test, amphetamine-stimulated activity mouse model of bipolar disorder; assay type: in vivo
# Experimental: DBA/2J strain mice (Jackson Laboratories, Bar Harbor, Me., USA) were obtained with an approximate starting age of 8 weeks and an average body weight of 25.9 g. Mice were acclimatized for at least three days prior to study commencement, and animals in poor condition were rejected during the acclimatization period. All mice were housed under identical conditions in animal rooms with HEPA-filtered air at a temperature of 70° F.+/−5° F. and a relative humidity of 50%+/−20%. Animal rooms maintained a minimum of 12 to 15 air changes per hour with a light/dark cycle of 12 hours on and 12 hours off with no twilight. Sterile Bed-O-Cobs® bedding was used and changed a minimum of once per week. […]
# At the commencement of the study, sixty (60) mice were randomly divided into six (6) groups of ten (10) animals. […] During this time, distance traveled was automatically recorded using TopScan (Clever Sys, Reston, Va., USA) video tracking software.
# The data herein indicate that PG and PG derivatives may be effective in treating neuropsychiatric conditions such as bipolar disorder. Therefore, we evaluated the efficacy of latanoprost in an open field model of bipolar disorder in mice. […]
# Total distance traveled for each mouse over a 20-minute session was recorded using TopScan (Clever Sys, Reston, Va., USA) video tracking software. […]
# [3] = test system: human oligodendrocyte cell line MO3-13; assay: Immuno-slotblot assay for secreted BDNF, oligodendrocyte conditioned media; assay type: cell-based; conditions: 1 μM, 5 μM, 10 μM; oligodendrocytes media; vs non-treated and DMSO
# Experimental: (§3) Human embryonic kidney 293T (HEK293T) cells, U87MG astrocytoma and the human oligodendrocyte cell line MO3-13 were grown in Dubelco Minimal Eagle Media (DMEM) (Invitrogen, Carlsbad, Calif., USA) supplemented with 5% heat inactivated fetal bovine serum. Cells were grown to 70% confluence prior to treatment. HEK293T cells were treated individually with […] latanoprost, unoprostone, bimatoprost, fluprostenol, PGE2, and PGF2α in serum-free DMEM. Cells were exposed to drug for 3 hours at 37° C. in a 5% CO2 incubator. U87MG cells were grown to 70% confluence prior to treatment. […]
# (§4) Cell culture media from cells that were not treated or treated with DMSO, 1, 5 or 10 μM latanoprost treated was collected in 15-mL screw cap polypropylene tubes from cell culture dishes. […] The relative amount of BDNF secreted by U87MG astrocytoma and MO3-13 oligodendrocyte cell lines were determined by an immune-slotblot method in which 200 μL of conditioned media was applied in triplicate to nitrocellulose membrane pre-wet in water in a Biodot (SF) ultrafiltration unit (Bio-Rad Laboratories, Mississauga, ON, Canada) under vacuum. […] After washing the membrane as above, the bound secondary antibody was detected by ECL Advance™ Western blot HRP substrate (GE Healthcare) using a ChemiDoc™ MP Imaging System (Bio-Rad Laboratories). The relative amount of BDNF was determined by using ImageLab™ software (BioRad). […]
# U87MG astrocytoma = assay: Immuno-slotblot assay for secreted BDNF, astrocytoma conditioned media; assay type: cell-based, human; conditions: 1 μM, 5 μM, 10 μM; astrocyte conditioned media; vs non-treated and DMSO
# Experimental: as §3, §4
# β-catenin = β-catenin stabilization in the brain of open field test mice (Western blot); assay type: in vivo, mouse; conditions: brains after open field test; relative to mice treated with saline; n=3
# Experimental: Following the open field test behavioral analysis of mice, the mice were euthanized and their brains were dissected and bifurcated along the longitudinal fissure. Brain samples from mice treated with vehicle (saline), latanoprost, or lithium were processed for β-catenin stabilization by extraction with hypotonic buffer. The levels of stabilized β-catenin were analyzed by Western blot, and the relative amounts of β-catenin (represented as the mean relative amount of three mice per group) were quantified.
# [4] = test system: CREB transcription factor; assay: CREB transcription factor activation (S133 phosphorylation) in HEK293T cells (Western blot); assay type: cell-based, human; conditions: 10 μM, vs DMSO-treated cells
# Experimental: Human embryonic kidney 293T (HEK293T) cells, U87MG astrocytoma and the human oligodendrocyte cell line MO3-13 were grown in Dubelco Minimal Eagle Media (DMEM) (Invitrogen, Carlsbad, Calif., USA) supplemented with 5% heat inactivated fetal bovine serum. Cells were grown to 70% confluence prior to treatment. […] Cells were exposed to drug for 3 hours at 37° C. in a 5% CO2 incubator. U87MG cells were grown to 70% confluence prior to treatment. Cells were treated with either DMSO vehicle (NT) or individually with 1, 5 and 10 μM latanoprost in DMEM lacking fetal bovine serum. Cells were exposed to treatments for 6 hours at 37° C. in a 5% CO2 incubator. The human oligodendrocyte cell line MO3-13 was grown and differentiated according to the methods described in McLaurin et al. (McLaurin, J., Trudel, G. C., Shaw, I. T., Antel, J. P., and Cashman, N. R., J. Neurobiol., 26: 283-293, 1995). On the third day of serum starvation, cells were treated with either DMSO vehicle (NT) or individually with 1, 5 and 10 μM latanoprost. Cells were exposed to treatments for 6 hours at 37° C. in a 5% CO2 incubator. […]
# as §2
# GSK-3 [5] = assay: Glycogen deposition in fat body tissue of third instar larvae; assay type: cell-based, Drosophila melanogaster; conditions: 10 and 20 μM; vs vehicle (DMSO)
# Experimental: GSK-3 also functions in glycogen deposition via an independent pathway to that of the Wnt/Wg signaling pathway. GSK-3 functions in the glycogen deposition pathway by phosphorylating and inactivating glycogen synthase, which catalyzes the rate-limiting step of glycogen synthesis. To further confirm that PG and PG derivatives inhibit GSK-3 activity, fat body tissue from third instar Drosophila melanogaster larvae was treated with vehicle (DMSO) or 10 and 20 μM latanoprost and the effects of drug treatment on glycogen accumulation was monitored.
# U87MG cells = assay: Bipolar disorder biomarkers in glioblastoma U87 cell line (Western blot); assay type: cell-based, human; conditions: 1 μM, 5 μM, 10 μM, vs untreated cells
# Experimental: Human embryonic kidney 293T (HEK293T) cells, U87MG astrocytoma and the human oligodendrocyte cell line MO3-13 were grown in Dubelco Minimal Eagle Media (DMEM) (Invitrogen, Carlsbad, Calif., USA) supplemented with 5% heat inactivated fetal bovine serum. Cells were grown to 70% confluence prior to treatment. HEK293T cells were treated individually with […] latanoprost, unoprostone, bimatoprost, fluprostenol, PGE2, and PGF2α in serum-free DMEM. Cells were exposed to drug for 3 hours at 37° C. in a 5% CO2 incubator. U87MG cells were grown to 70% confluence prior to treatment. Cells were treated with either DMSO vehicle (NT) or individually with 1, 5 and 10 μM latanoprost in DMEM lacking fetal bovine serum. Cells were exposed to treatments for 6 hours at 37° C. in a 5% CO2 incubator. The human oligodendrocyte cell line MO3-13 was grown and differentiated according to the methods described in McLaurin et al. (McLaurin, J., Trudel, G. C., Shaw, I. T., Antel, J. P., and Cashman, N. R., J. Neurobiol., 26: 283-293, 1995). On the third day of serum starvation, cells were treated with either DMSO vehicle (NT) or individually with 1, 5 and 10 μM latanoprost. Cells were exposed to treatments for 6 hours at 37° C. in a 5% CO2 incubator.
# as §1
# Protein concentrations were determined by the Peterson method (Peterson, Analyt. Biochem., 83: 346-356, 1977). Proteins (20 μg/lane) were loaded onto SDS-polyacrylamide gels and separated by electrophoresis. Proteins in gels were transferred onto PVDF membranes and processed for antibody reactions. To detect CREB, S133-phosphorylated CREB, and GAPDH loading controls, antibodies were diluted in 2% ECL Advance™ blocking reagent (GE Healthcare, Mississauga, ON, Canada) and solubilized in PBS-Tween20. Membranes were probed overnight at 4° C. Membranes were washed four times with PBS-Tween20 and labeled for 1 hour at 20° C. with secondary antibodies conjugated to horseradish peroxidase (HRP). The membrane was washed four more times with PBS-Tween20 and HRP activity was developed using Advance™ chemiluminescence (ECL) reagent (GE Healthcare, Mississauga, ON, Canada) according to the manufacturer's instructions. PVDF membranes were exposed to X-ray film.
# We next examined the effects of latanoprost treatment (1 μM, 5 μM, and 10 μM) on other bipolar disorder biomarkers in glioblastoma U87 cell line.
compound,measurement,setting,value
"CCCCC[C@H](O)/C=C/[C@H]1[C@H](O)CC(=O)[C@@H]1C/C=C\CCCC(=O)O [PGE2, (Z)-7-[(1R,2R,3R)-3-hydroxy-2-[(E)-(3S)-3-hydroxy-1-octenyl]-5-oxo-cyclopentyl]-hept-5-enoic acid]",levels of cytoplasmic β-catenin,GSK-3 [1],increased levels of cytoplasmic β-catenin
"CC(C)OC(=O)CCC/C=C\C[C@@H]1[C@@H](CC[C@@H](O)CCc2ccccc2)[C@H](O)C[C@@H]1O [latanoprost, propan-2-yl-(Z)-7-[(1R,2R,3R,5S)-3,5-dihydroxy-2-[(3R)-3-hydroxy-5-phenylpentyl]cyclopentyl]-hept-5-enoate]",Dll expression in wing imaginal discs,GSK-3 [2]; 20 μM,increased Dll expression
same,Dll activation (DLL protein levels in wing pouch),"GSK-3 [2]; increasing doses 1 μM, 5 μM, 10 μM and 20 μM, vs DMSO control vehicle",significant activation of Dll
same,amphetamine-stimulated locomotion (distance traveled),"DBA/2J mice; final five minutes of 20-minute open field test, 0.5 mg/kg amphetamine, drug IP 1 hour prior to test, 0.5 mg/kg",significantly reduced; also recorded: significantly (P<0.05) attenuates
same,activity in saline-treated mice,"DBA/2J mice; no amphetamine, compared among vehicle, latanoprost, lithium",No significant differences
same,amount of BDNF secreted,[3],no significant increase
same,levels of cytoplasmic β-catenin,GSK-3 [1],increased levels of cytoplasmic β-catenin
same,amount of BDNF secreted,U87MG astrocytoma,increased significantly
same,levels of β-catenin in brain,β-catenin,significantly increased levels of β-catenin
same,levels of S133 phosphorylated-CREB,[4],increased levels of 5133 phosphorylated-CREB
same,glycogen accumulation in fat body tissue,GSK-3 [5],increase in glycogen accumulation in a dosage-dependent manner
same,levels of BDNF,U87MG cells,increased levels
same,levels of inflammatory cytokine TNF-α,U87MG cells,reduced levels
same,levels of serotonin receptor 5HT2A,U87MG cells,increased levels
same,levels of transcription factor TCF/LEF1,U87MG cells,increased levels
same,phosphorylation at Ser133 on CREB,U87MG cells,increased levels
same,total level of CREB protein,U87MG cells,remaining relatively constant
CCCC(CCC)C(=O)O [valproate],Dll expression in wing imaginal discs,GSK-3 [2]; 1 mM,activation of Dll expression
"CCCCC[C@H](O)/C=C/[C@@H]1[C@@H](C/C=C\CCCC(=O)O)[C@@H](O)C[C@H]1O [PGF2α, (Z)-7-[(1R,2R,3R,5S)-3,5-dihydroxy-2-[(E)-(3S)-3-hydroxy-1-octenyl]-cyclopentyl]-5-heptenoic acid]",levels of cytoplasmic β-catenin,GSK-3 [1],increased levels of cytoplasmic β-catenin

# Source: patent US9259409B2, “Compositions comprising a prostaglandin for treating neuropsychiatric conditions” (Inceptum Research & Therapeutics, Inc., priority 2011, dated 2016)
